The record followed here is patent US7410963B2, “Benzo-1,4-diazepin-2-one derivatives as phosphodiesterase PDE2 inhibitors, preparation and therapeutic use thereof” (VIA Pharmaceuticals, Inc., priority 2003, dated 2008).

Usually inhibition stands for the share of the control response that was lost under treatment.

One assay deals with T1, PDE2 (Bos taurus, UniProt P14099).
T1 sequence (P14099 1-921): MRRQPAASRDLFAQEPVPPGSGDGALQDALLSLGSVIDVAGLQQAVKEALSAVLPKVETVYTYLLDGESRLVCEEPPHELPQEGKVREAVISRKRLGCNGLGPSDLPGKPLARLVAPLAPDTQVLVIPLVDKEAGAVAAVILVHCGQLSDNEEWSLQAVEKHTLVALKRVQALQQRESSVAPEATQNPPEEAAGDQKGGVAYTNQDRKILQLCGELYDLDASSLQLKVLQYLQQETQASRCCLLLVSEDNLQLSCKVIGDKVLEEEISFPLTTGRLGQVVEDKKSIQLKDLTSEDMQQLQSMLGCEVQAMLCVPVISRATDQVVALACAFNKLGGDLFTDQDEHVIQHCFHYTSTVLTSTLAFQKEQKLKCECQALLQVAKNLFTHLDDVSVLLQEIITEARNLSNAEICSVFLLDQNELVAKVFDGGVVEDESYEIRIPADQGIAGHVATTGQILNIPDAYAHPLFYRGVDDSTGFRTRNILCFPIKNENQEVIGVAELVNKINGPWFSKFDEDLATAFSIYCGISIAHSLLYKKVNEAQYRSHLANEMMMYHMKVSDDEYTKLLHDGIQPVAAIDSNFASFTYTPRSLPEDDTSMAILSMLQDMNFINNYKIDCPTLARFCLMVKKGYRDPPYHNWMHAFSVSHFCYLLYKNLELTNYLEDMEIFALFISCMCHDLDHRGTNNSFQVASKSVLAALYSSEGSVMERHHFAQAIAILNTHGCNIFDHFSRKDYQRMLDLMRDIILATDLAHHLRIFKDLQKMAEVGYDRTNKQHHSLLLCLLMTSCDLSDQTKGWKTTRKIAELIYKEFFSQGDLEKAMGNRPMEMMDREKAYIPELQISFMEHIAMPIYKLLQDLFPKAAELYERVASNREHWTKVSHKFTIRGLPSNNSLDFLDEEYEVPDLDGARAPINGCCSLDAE
Description: Radioenzymatic phosphodiesterase assay: PDE2 inhibition. Type of assay: biochemical, bovine. The following applies: Table 1; 10 μM test compound; read-out: PDE2 percentage of inhibition at 10 μM. The method, then: Nucleoside radioactivity was determined by liquid scintillation.
`CN1C(=O)CN=C(c2cccc(N)c2)c2cc(-c3ccccc3)ccc21` [Example 68, 5-(3-Amino-phenyl)-1-methyl-7-phenyl-1,3-dihydro-benzo[e][1,4]diazepin-2-one]: the inhibition at 10 µM is 52%.
The same measure, in the same setting: next, `COc1ccccc1-c1cc2c(cc1Oc1ccccc1)N(C)C(=O)CN=C2c1cccc(C(N)=O)c1` [Example 74, 3-[7-(2-Methoxy-phenyl)-1-methyl-2-oxo-8-phenoxy-2,3-dihydro-1H-benzo[e][1,4]diazepin-5-yl]-benzamide]: 98%.
On the same count and under the same terms, next, `COc1ccc(C2=NCC(=O)Nc3cc(OC)c(-c4ccccc4)cc32)cc1` [Example 76, 5-(4-Methoxy-phenyl)-8-methoxy-7-phenyl-1,3-dihydro-benzo[e][1,4]diazepin-2-one]: 91%; `COc1cccc(C2=NCC(=O)N(C)c3ccc(-c4ccccc4)cc32)c1` [Example 79, 5-(3-Methoxy-phenyl)-1-methyl-7-phenyl-1,3-dihydro-benzo[e][1,4]diazepin-2-one]: 84%; `COc1ccc(Cl)cc1-c1ccc2c(c1)C(c1cccc(C#N)c1)=NCC(=O)N2C` [Example 81, 3-[7-(5-Chloro,2-methoxy-phenyl)-1-methyl-2-oxo-2,3-dihydro-1H-benzo[e][1,4]diazepin-5-yl]-benzonitrile]: 22%.
The same measure, in the same setting: the value for `COc1cccc(Cl)c1-c1ccc2c(c1)C(c1cccc(C#N)c1)=NCC(=O)N2C` [Example 82, 3-[7-(2-Chloro,6-methoxy-phenyl)-1-methyl-2-oxo-2,3-dihydro-1H-benzo[e][1,4]diazepin-5-yl]-benzonitrile] was 92%.
In the case of `CN1C(=O)CN=C(c2cccc(C(N)=O)c2)c2cc(-c3ccccc3)c(OC(F)(F)F)cc21` [Example 87, 3-(1-Methyl-2-oxo-7-phenyl-8-trifluoromethoxy-2,3-dihydro-1H-benzo[e][1,4]diazepin-5-yl)-benzamide], the inhibition at 10 µM stood at 93%.
On the same count and under the same terms, next, `CN1C(=O)CN=C(c2cccc(C(N)=O)c2)c2cc(-c3ccccc3Oc3ccccc3)ccc21` [Example 91, 3-[1-Methyl-2-oxo-7-(2-phenoxy-phenyl)-2,3-dihydro-1H-benzo[e][1,4]diazepin-5-yl]-benzamide]: 96%.
The same measure, in the same setting: the value for `COc1cc2c(cc1-c1ccccc1)C(c1ccccc1Br)=NCC(=O)N2` [Example 102, 5-(2-Bromo-phenyl)-8-methoxy-7-phenyl-1,3-dihydro-benzo[e][1,4]diazepin-2-one] was 48%.

The assay is the same for the next values; noted with them: read-out: PDE2 percentage of inhibition at 10 μM.
Regarding `COc1cc2c(cc1-c1ccccc1)C(c1cccc(C#CCNC(=O)OC(C)(C)C)c1)=NCC(=O)N2C` [Example 67, {3-[3-(8-Methoxy-1-methyl-2-oxo-7-phenyl-2,3-dihydro-1H-benzo[e][1,4]diazepin-5-yl)-phenyl]-prop-2-ynyl}-carbamic acid tert-butyl ester], the inhibition at 10 µM is 60%.
Turning to `CN1C(=O)CN=C(c2cccc(C#N)c2)c2cc(-c3ccccc3)c(Oc3ccccc3)cc21` [Example 69, 3-(1-Methyl-2-oxo-8-phenoxy-7-phenyl-2,3-dihydro-1H-benzo[e][1,4]diazepin-5-yl)-benzonitrile], the inhibition at 10 µM turned out to be 4%.
As to `COc1ccccc1-c1cc2c(cc1Oc1ccccc1)N(C)C(=O)CN=C2c1cccc(C#N)c1` [Example 70, 3-[7-(2-Methoxy-phenyl)-1-methyl-2-oxo-8-phenoxy-2,3-dihydro-1H-benzo[e][1,4]diazepin-5-yl]-benzonitrile], the inhibition at 10 µM was 95%.
Turning to `CN1C(=O)CN=C(c2cccc(C#N)c2)c2cc(-c3ccccc3Cl)c(Oc3ccccc3)cc21` [Example 71, 3-[7-(2-Chloro-phenyl)-1-methyl-2-oxo-8-phenoxy-2,3-dihydro-1H-benzo[e][1,4]diazepin-5-yl]-benzonitrile], the inhibition at 10 µM came to 82%.
The same measure, in the same setting: the value for `CN1C(=O)CN=C(c2cccc(C(N)=O)c2)c2cc(-c3ccccc3)c(Oc3ccccc3)cc21` [Example 72, 3-(1-Methyl-2-oxo-8-phenoxy-7-phenyl-2,3-dihydro-1H-benzo[e][1,4]diazepin-5-yl)-benzamide] was 28%; that for `CN1C(=O)CN=C(c2cccc(C(N)=O)c2)c2cc(-c3ccccc3Cl)c(Oc3ccccc3)cc21` [Example 73, 3-[7-(2-Chloro-phenyl)-1-methyl-2-oxo-8-phenoxy-2,3-dihydro-1H-benzo[e][1,4]diazepin-5-yl]-benzamide] was 96%.
Still for that read-out and setting: the value for `COc1cccc(OC)c1-c1ccc2c(c1)C(c1ccc(C)c([N+](=O)[O-])c1)=NCC(=O)N2C` [Example 77, 7-(2,6-Dimethoxy-phenyl)-1-methyl-5-(4-methyl-3-nitro-phenyl)-1,3-dihydro-benzo[e][1,4]diazepin-2-one] was 99%; that for `COc1cc2c(cc1-c1ccccc1OC(C)C)C(c1cccc(C(N)=O)c1)=NCC(=O)N2C` [Example 78, 3-[7-(2-Isopropoxy-phenyl)-8-methoxy-1-methyl-2-oxo-2,3-dihydro-1H-benzo[e][1,4]diazepin-5-yl]-benzamide] was 97%; that for `N#Cc1cccc(C2=NCC(=O)Nc3cc(OC(F)(F)F)c(-c4ccccc4)cc32)c1` [Example 85, 3-(2-Oxo-7-phenyl-8-trifluoromethoxy-2,3-dihydro-1H-benzo[e][1,4]diazepin-5-yl)-benzonitrile] was 70%.
Same read-out and setting: next, `CN1C(=O)CN=C(c2cccc(C#N)c2)c2cc(-c3ccccc3)c(OC(F)(F)F)cc21` [Example 86, 3-(1-Methyl-2-oxo-7-phenyl-8-trifluoromethoxy-2,3-dihydro-1H-benzo[e][1,4]diazepin-5-yl)-benzonitrile]: 85%.
Regarding `CN1C(=O)CN=C(c2cccc(C#N)c2)c2cc(-c3ccccc3Oc3ccccc3)ccc21` [Example 88, 3-[1-Methyl-2-oxo-7-(2-phenoxy-phenyl)-2,3-dihydro-1H-benzo[e][1,4]diazepin-5-yl]-benzonitrile], the inhibition at 10 µM turned out to be 89%.
On the same count and under the same terms, the value for `COc1cc2c(cc1-c1c(OC)cccc1OC)C(c1cccc(C#N)c1)=NCC(=O)N2C` [Example 89, 3-[7-(2,6-Dimethoxy-phenyl)-8-methoxy-1-methyl-2-oxo-2,3-dihydro-1H-benzo[e][1,4]diazepin-5-yl]-benzonitrile] was 99%; that for `COc1cc2c(cc1-c1ccccc1Oc1ccccc1)C(c1cccc(C#N)c1)=NCC(=O)N2C` [Example 90, 3-[8-Methoxy-1-methyl-2-oxo-7-(2-phenoxy-phenyl)-2,3-dihydro-1H-benzo[e][1,4]diazepin-5-yl]-benzonitrile] was 98%.
`COc1cc2c(cc1-c1ccccc1)C(c1cccc(CCCCc3ccccc3)c1)=NCC(=O)N2C` [Example 94, 8-Methoxy-1-methyl-7-phenyl-5-[3-(4-phenyl-butyl)-phenyl]-1,3-dihydro-benzo[e][1,4]diazepin-2-one]: the inhibition at 10 µM amounted to 79%.
On the same count and under the same terms, next, `COCC#Cc1cccc(C2=NCC(=O)N(C)c3cc(OC)c(-c4ccccc4)cc32)c1` [Example 95, 8-Methoxy-5-[3-(3-methoxy-prop-1-ynyl)-phenyl]-1-methyl-7-phenyl-1,3-dihydro-benzo[e][1,4]diazepin-2-one]: 89%; `COc1cc2c(cc1-c1ccccc1)C(c1ccc(C#CCNC(=O)OC(C)(C)C)cc1)=NCC(=O)N2C` [Example 96, {3-[4-(8-Methoxy-1-methyl-2-oxo-7-phenyl-2,3-dihydro-1H-benzo[e][1,4]diazepin-5-yl)-phenyl]-prop-2-ynyl}-carbamic acid tert-butyl ester]: 21%; `COc1cc2c(cc1-c1ccccc1)C(c1ccc(C#Cc3ccccc3)cc1)=NCC(=O)N2C` [Example 97, 8-Methoxy-1-methyl-7-phenyl-5-(4-phenylethynyl-phenyl)-1,3-dihydro-benzo[e][1,4]diazepin-2-one]: 45%.
The same measure, in the same setting: next, `COCC#Cc1ccc(C2=NCC(=O)N(C)c3cc(OC)c(-c4ccccc4)cc32)cc1` [Example 98, 8-Methoxy-5-[4-(3-methoxy-prop-1-ynyl)-phenyl]-1-methyl-7-phenyl-1,3-dihydro-benzo[e][1,4]diazepin-2-one]: 80%; `COc1cccc(OC)c1-c1ccc2c(c1)C(c1ccc(Cl)c(Cl)c1)=NCC(=O)N2C` [Example 99, 5-(3,4-Dichloro-phenyl)-7-(2,6-dimethoxy-phenyl)-1-methyl-1,3-dihydro-benzo[e][1,4]diazepin-2-one]: 98%.
Same read-out and setting: next, `COc1ccc(C2=NCC(=O)N(C)c3ccc(-c4c(OC)cccc4OC)cc32)cc1OC` [Example 101, 5-(3,4-Dimethoxy-phenyl)-7-(2,6-dimethoxy-phenyl)-1-methyl-1,3-dihydro-benzo[e][1,4]diazepin-2-one]: 99%.
